Results from patent publication US20250002535A1, “PEPTIDE HYDROGEL COMPRISING HYDROPHILIC AZIDE-CONTAINING AMINO ACID AND ITS USE” (The United States of America, as represented by the …, priority 2023, published 2025).
Numbered stars: 1 amine (or outer) side, 2 acyl side, 3 side chain; on linkers, the order of the positions; unused ones are H or OH. Square brackets hold non-standard residues; d marks the D form. Peptide text beside a SMILES is read from it. X1 = [N-]=[N+]=NCCNCC[C@H](N[*:1])C(=O)[*:2]; Lys(N3) = [N-]=[N+]=NCCCC[C@H](N)C(=O)O

Legend:
[1] = intrinsic hydrophilicity/hydrophobicity coefficient ΔtR(Gly) by RP-HPLC (procedure of Hodges et al.); assay type: physicochemical; conditions: RP-HPLC retention of guest-residue peptide versus Gly standard; positive = more hydrophobic than Gly
Description: We then determined the intrinsic hydrophilicity/hydrophobicity coefficients (ΔtR(Gly)) for residue 1, ^N3K, and Lys according to the procedure of Hodges et al. to gain comparative insight into the hydrophilic nature of the new residue. […] Amino acids with side-chains more hydrophobic than Gly have positive ΔtR(Gly) values, and vice-versa.
RP-HPLC was performed with a solvent system of 0.1% TFA in Milli-Q H2O (Standard A) and 0.1% TFA in 9:1 CH3CN/H2O (Standard B). Analytical RPHPLC was performed on an Agilent 1200 series HPLC, using a Vydac 218TP C18 column (250×4.6 mm, 5 μm), with a linear gradient from 0 to 100% B at a rate of 1% B per min, at a flow rate of 0.25 mL/min and a column temperature of 40° C.

[2] = SPAAC ligation kinetics with BCN, second order conditions, NMR; conditions: methanol at 25° C.
Description: The reaction kinetics of amino acid 1 in SPAAC with two strained cyclooctynes, DBCO and BCN, were determined in comparison with ^N3K. First, peptides 12 and 13, which contain residue 1 and ^N3K respectively, were independently ligated to PEG-functionalized DBCO. Rates were determined under pseudo-first order conditions by UV-vis spectroscopy at 308 nm (FIGS. 3A-3C, 7, 8). The calculated second order rate constant for peptide 12 was 0.34 M^−1 s^−1 in HBS buffer, pH 7.4 at 25° C., which is similar to previously reported rate constants for other azides. The ligation rate of peptide 12 is slightly slower than peptide 13 ([…]), which may be due to hydrophobic interactions between the ^N3K side-chain and the aromatic DBCO, facilitating ligation. […] We then determined the reaction rate of Boc-protected amino acid 2 itself with BCN in methanol at 25° C. […]
Solutions of BCN and amino acids were prepared in MeOD. The reaction between BCN and amino acids was measured under second order conditions using NMR. […] The reaction was monitored by ^1H NMR. Concentration of product ([P]) at each time point was determined by the integration of red proton in the product using blue proton as internal standard. The value of k2t was calculated by equation 1. With Prism software, second order rate constants, k2, was calculated by linear regression between k2t and time. […]

[3] = solubility in water by UV-vis spectroscopy before and after centrifugation; assay type: physicochemical; conditions: 20 mg/mL was the highest concentration tested
Description: Residue 1's ability to enhance solubility was tested via the amphiphilic peptide 16, which contains 7 copies of 1 along with 9 hydrophobic Val residues. Here, we directly measured solubility via UV-vis spectroscopy of aqueous preparations of peptides before and after centrifugation (FIG. 2B). Peptide 16 (FIG. 5) was fully soluble in water at 20 mg/mL, the highest concentration tested, as was its Lys-containing control peptide 18. […] Further, peptides 16 and 18 had nearly identical RP-HPLC chromatograms (FIG. 6) indicating similar hydrophilic character. In contrast, the ^N3K-containing peptide 17 was completely insoluble in water at only 1 mg/mL, showing extensive light scattering before centrifugation and no scattering after, due to sedimentation of aggregates.

[4] = solubility of peptide powder in solvents; assay type: physicochemical
Description: Peptide 17: Insoluble powder in water and acetonitrile. It is soluble in Trifluoroethanol.

For `NCCCC[C@H](N)C(=O)O` [Lys], the “intrinsic hydrophilicity/hydrophobicity coefficient ΔtR(Gly)” value [1] was −0.04.

With `[N-]=[N+]=NCCNCC[C@H](N)C(=O)O` [compound 1] the “intrinsic hydrophilicity/hydrophobicity coefficient ΔtR(Gly)” value [1] was 1.4.

With `CC(C)(C)OC(=O)N(CCN=[N+]=[N-])CC[C@H](NC(=O)OCC1c2ccccc2-c2ccccc21)C(=O)O` [compound 2, (S)-2-((((9H-fluoren-9-yl)methoxy)carbonyl)amino)-4-((2-azidoethyl)(tertbutoxycarbonyl)-amino)butanoic acid] the “second order rate constant k2 with BCN” value [2] was 0.28 M⁻¹ s⁻¹.

For `CC(C)[C@H](N)C(=O)N[C@@H](CCNCCN=[N+]=[N-])C(=O)N[C@H](C(=O)N[C@@H](CCNCCN=[N+]=[N-])C(=O)N[C@H](C(=O)N[C@@H](CCNCCN=[N+]=[N-])C(=O)N[C@H](C(=O)N[C@@H](CCNCCN=[N+]=[N-])C(=O)N[C@H](C(=O)N1CCC[C@@H]1C(=O)N1CCC[C@H]1C(=O)N[C@H](C(=O)N[C@@H](CCNCCN=[N+]=[N-])C(=O)N[C@H](C(=O)N[C@@H](CCC(=O)O)C(=O)N[C@H](C(=O)N[C@@H](CCNCCN=[N+]=[N-])C(=O)N[C@H](C(=O)N[C@@H](CCNCCN=[N+]=[N-])C(=O)N[C@H](C(N)=O)C(C)C)C(C)C)C(C)C)C(C)C)[C@@H](C)O)C(C)C)C(C)C)C(C)C)C(C)C` [peptide 16, VZVZVZVZV^DPPTZVEVZVZV-NH2] (H-V[X1]V[X1]V[X1]V[X1]V[dP]PT[X1]VEV[X1]V[X1]V-NH2), the solubility [3] was ≥ 20 mg/mL.

With `CC(C)[C@H](N)C(=O)N[C@@H](CCCCN=[N+]=[N-])C(=O)N[C@H](C(=O)N[C@@H](CCCCN=[N+]=[N-])C(=O)N[C@H](C(=O)N[C@@H](CCCCN=[N+]=[N-])C(=O)N[C@H](C(=O)N[C@@H](CCCCN=[N+]=[N-])C(=O)N[C@H](C(=O)N1CCC[C@@H]1C(=O)N1CCC[C@H]1C(=O)N[C@H](C(=O)N[C@@H](CCCCN=[N+]=[N-])C(=O)N[C@H](C(=O)N[C@@H](CCC(=O)O)C(=O)N[C@H](C(=O)N[C@@H](CCCCN=[N+]=[N-])C(=O)N[C@H](C(=O)N[C@@H](CCCCN=[N+]=[N-])C(=O)N[C@H](C(N)=O)C(C)C)C(C)C)C(C)C)C(C)C)[C@@H](C)O)C(C)C)C(C)C)C(C)C)C(C)C` [peptide 17] (H-V[Lys(N3)]V[Lys(N3)]V[Lys(N3)]V[Lys(N3)]V[dP]PT[Lys(N3)]VEV[Lys(N3)]V[Lys(N3)]V-NH2) the “solubility in Trifluoroethanol” value [4] was “soluble”, the “solubility in water and acetonitrile” value [4] was “Insoluble” and the solubility [3] was < 1 mg/mL.

With `CC(C)[C@H](N)C(=O)N[C@@H](CCCCN)C(=O)N[C@H](C(=O)N[C@@H](CCCCN)C(=O)N[C@H](C(=O)N[C@@H](CCCCN)C(=O)N[C@H](C(=O)N[C@@H](CCCCN)C(=O)N[C@H](C(=O)N1CCC[C@@H]1C(=O)N1CCC[C@H]1C(=O)N[C@H](C(=O)N[C@@H](CCCCN)C(=O)N[C@H](C(=O)N[C@@H](CCC(=O)O)C(=O)N[C@H](C(=O)N[C@@H](CCCCN)C(=O)N[C@H](C(=O)N[C@@H](CCCCN)C(=O)N[C@H](C(N)=O)C(C)C)C(C)C)C(C)C)C(C)C)[C@@H](C)O)C(C)C)C(C)C)C(C)C)C(C)C` [peptide 18] (H-VKVKVKVKV[dP]PTKVEVKVKV-NH2; N-terminus assumed) the solubility [3] was ≥ 20 mg/mL.
